Reference: patent US9737495B2, “Process for obtaining purified pterostilbene and methods of use thereof” (Indus Biotech Private Limited, priority 2009, dated 2017)
Where two headings read alike, the source gives them in different places.

Legend:
[1] = molecular target: T1, SIRT1 (Homo sapiens, UniProt Q96EB6); assay: SIRT1 inhibition, Fluor de Lys fluorimetric deacetylase assay (in vitro); assay type: biochemical; conditions: read-out: IC50 for SIRT1 (converted)
T1 sequence (Q96EB6 1-747): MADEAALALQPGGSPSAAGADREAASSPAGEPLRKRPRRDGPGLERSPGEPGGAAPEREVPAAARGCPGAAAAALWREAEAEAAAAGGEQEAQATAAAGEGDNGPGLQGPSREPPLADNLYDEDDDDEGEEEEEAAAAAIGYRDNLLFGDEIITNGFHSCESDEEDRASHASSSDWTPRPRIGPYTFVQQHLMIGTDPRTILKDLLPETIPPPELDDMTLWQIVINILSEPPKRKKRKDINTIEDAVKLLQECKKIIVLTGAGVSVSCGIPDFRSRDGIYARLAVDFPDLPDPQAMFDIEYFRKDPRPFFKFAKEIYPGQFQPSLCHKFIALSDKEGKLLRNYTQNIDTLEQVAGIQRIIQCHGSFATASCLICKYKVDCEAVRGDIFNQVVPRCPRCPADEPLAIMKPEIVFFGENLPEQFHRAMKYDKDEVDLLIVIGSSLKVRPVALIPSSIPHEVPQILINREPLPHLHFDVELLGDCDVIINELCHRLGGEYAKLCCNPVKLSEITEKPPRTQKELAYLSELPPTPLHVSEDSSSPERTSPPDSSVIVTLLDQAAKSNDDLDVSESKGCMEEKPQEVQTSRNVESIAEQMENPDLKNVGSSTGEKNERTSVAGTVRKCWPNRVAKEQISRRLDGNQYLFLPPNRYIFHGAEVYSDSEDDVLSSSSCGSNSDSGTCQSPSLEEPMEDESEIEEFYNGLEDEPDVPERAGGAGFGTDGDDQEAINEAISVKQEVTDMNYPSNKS

[2] = molecular target: T2, Human recombinant deacetylase sirtuin SIRT2 (Homo sapiens, UniProt Q8IXJ6); assay: SIRT2 inhibition, Fluor de Lys fluorimetric deacetylase assay (in vitro); assay type: biochemical; conditions: read-out: IC50 for SIRT2 (converted)
T2 construct: host or cells: E. coli
T2 sequence (Q8IXJ6 1-389): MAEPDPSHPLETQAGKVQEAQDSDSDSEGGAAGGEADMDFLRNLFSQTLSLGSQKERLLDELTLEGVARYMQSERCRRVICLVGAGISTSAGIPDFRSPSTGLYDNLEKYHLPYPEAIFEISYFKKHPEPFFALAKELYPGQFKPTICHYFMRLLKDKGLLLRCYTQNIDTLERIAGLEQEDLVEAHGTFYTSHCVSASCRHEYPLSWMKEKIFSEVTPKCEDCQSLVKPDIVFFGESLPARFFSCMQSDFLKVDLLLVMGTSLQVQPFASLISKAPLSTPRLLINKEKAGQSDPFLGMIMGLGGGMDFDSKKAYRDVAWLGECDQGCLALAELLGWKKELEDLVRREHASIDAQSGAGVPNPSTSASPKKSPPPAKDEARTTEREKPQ
Protocol: (§1) Human recombinant deacetylase sirtuin SIRT2 expressed in E. coli was used. Test compound (1, 10, 100 and 1000 μg/ml conc.) and/or vehicle was pre-incubated with 2 μg/ml enzyme in Tris-HCl buffer pH 8.0 for 15 minutes at 37° C. The reaction is initiated by addition of 25 μM Fluor de Lys-SIRT1 and 150 μM NAD for another 120 minute incubation period and is terminated by further addition of Fluor de Lys Developer. Determination of the amount of de-acetate Fluor de Lys formed is read spectrofluorimetrically with excitation at 360 nm and emission at 465 nm. The concentration-response (% inhibition) curve was plotted and IC50 was calculated.
as §1, with “37 °C.” for “37° C.”

[3] = test system: 3-NP induced HD in rats; assay: 3-NP induced HD in rats: body weight; assay type: in vivo, Wistar rats; conditions: for % difference of body weights: 30 mg/kg p.o. daily complexed with cyclodextrin + 3-NPA 20 mg/kg/day i.p., n=6
Protocol: (§2) 3-NP (20 mg/kg i.p., daily in 2 divided doses) was administered to all the Wistar rats of weight range 250-300 g. in two divided doses at 12 hr interval for 9-11 days until disease is induced (acutely ill). It took 12 days to completely induce the disease symptoms. 3-NP was diluted with water and the pH will be adjusted upto 7.4 with NaOH. It was administered intraperitoneally (i.p.) at a dose of 10 mg/kg every 12 hrs (8:00 am and 8:00 pm) for 12 days (total daily dose 20 mg/kg). The observations were done on day 0, 7, 9, 11 and 13. The test compound was administered for the same period p.o. (per oral) one hour before 3-NP injection (at 7:00 AM daily) at dose of 30 mg/kg, p.o. The experimental groups were as follows: 1) Healthy Control: No treatment 2) HD control (3-NP+cyclodextrin) 3) TEST COMPOUND (30 mg/kg, p.o. daily complexed with cyclodextrin) treated.

[4] = test system: 3-NP induced HD in rats; assay: 3-NP induced HD in rats: neurological behavioral grading; assay type: in vivo, Wistar rats; conditions: for neurological behavioral changes (neurological problems score, grades 0-5) / neurological score, % change from cyclo + 3-NPA treatment: 30 mg/kg p.o. + 3-NPA
Protocol: as §2
Behavioral changes were recorded daily, and immediately before sacrifice, graded according to the neurological scale described. A total of 6 grades included: • Grade 0: normal behavior; • Grade 1: general slowness in movement due to mild hind-limb impairment; • Grade 2: prominent gait abnormality with poor coordination; • Grade 3: nearly complete hind-limb paralysis; • Grade 4: incapability to move due to four-limb impairment; and • Grade 5: recumbence.

[5] = test system: 3-NP induced HD in rats; assay: 3-NP induced HD in rats: squares crossed in open field test; assay type: in vivo, Wistar rats; conditions: 30 mg/kg p.o. + 3-NPA
Protocol: as §2

[6] = test system: 3-NP induced HD in rats; assay: 3-NP induced HD in rats: brain wet weight; assay type: in vivo, Wistar rats; conditions: Day 13, 30 mg/kg p.o. + 3-NPA
Protocol: as §2
On day 13, the brains of the rats were dissected out and cleaned. The wet weight of the brains were recorded for each rat. The results are also graphically represented in FIG. 3
On day 13, the brains of the rats were dissected out and cleaned. The wet weight of the brains were recorded for each rat.

[7] = test conc. 1-1000 μg/ml, pH 8.0, 37° C.

IC50 ([1]; conversion of the μg/ml value): 47 µM | IC50 [1, 7]: 47.2 µM | IC50 ([2]; conversion of the μg/ml value): 45 µM | IC50 [2, 7]: 45.6 µM
SMILES: COc1cc(/C=C/c2ccc(O)cc2)cc(OC)c1 [Test compound, pterostilbene]
% difference of body weights ([3]; Day 7): 1.90 ± 3.72% | % difference of body weights ([3]; Day 9): −0.82 ± 3.77% | % difference of body weights ([3]; Day 11): −2.53 ± 3.70% | % difference of body weights ([3]; Day 13): −6.08 ± 4.10% | reduction in body weight ([3]; after 11 days, 30 mg/kg p.o. + 3-NP (3-NP alone 12.48%)): 2.53% | neurological behavioral changes (neurological problems score, grades 0-5) ([4]; Day 7): 0 | neurological behavioral changes (neurological problems score, grades 0-5) ([4]; Day 9): 1 | neurological score, % change from cyclo + 3-NPA treatment ([4]; Day 9): −83.33% | neurological behavioral changes (neurological problems score, grades 0-5) ([4]; Day 11): 7 | neurological score, % change from cyclo + 3-NPA treatment ([4]; Day 11): −30% | neurological behavioral changes (neurological problems score, grades 0-5) ([4]; Day 13 (after 12-day treatment)): 13 | neurological score, % change from cyclo + 3-NPA treatment ([4]; Day 13): −23.52% | reduction of neurological problems as compared to vehicle (cyclo+3-NPA) group ([4]; after 12-day treatment (Day 13), 30 mg/kg p.o.): 23.52% | number of squares crossed in open field test ([5]; Day 7): 144.17 ± 7.47 | number of squares crossed in open field test ([5]; Day 9): 125.67 ± 6.22 | number of squares crossed in open field test ([5]; Day 11): 109.00 ± 13.72 | number of squares crossed in open field test ([5]; Day 13): 77.83 ± 6.92 | Brain weight (g)-Mean ± SEM [6]: 1.605 ± 0.0659 g
